“Also recorded” adds a separate entry of the source. Bridges are numbered along the chain shown (N, C = ends). Where no end group is shown, it is not given here.
B1: AFP: Human alpha-fetoprotein isolated from the cord serum, purity not less than 99.8% (protein, UniProt P02771 19-609, looked up)
Alpha-fetoprotein: RTLHRNEYGIASILDSYQCTAEISLADLATIFFAQFVQEATYKEVSKMVKDALTAIEKPTGDEQSSGCLENQLPAFLEELCHEKEILEKYGHSDCCSQSEEGRHNCFLAHKKPTPASIPLFQVPEPVTSCEAYEEDRETFMNKFIYEIARRHPFLYAPTILLWAARYDKIIPSCCKAENAVECFQTKAATVTKELRESSLLNQHACAVMKNFGTRTFQAITVTKLSQKFTKVNFTEIQKLVLDVAHVHEHCCRGDVLDCLQDGEKIMSYICSQQDTLSNKITECCKLTTLERGQCIIHAENDEKPEGLSPNLNRFLGDRDFNQFSSGEKNIFLASFVHEYSRRHPQLAVSVILRVAKGYQELLEKCFQTENPLECQDKGEEELQKYIQESQALAKRSCGLFQKLGEYYLQNAFLVAYTKKAPQLTSSELMAITRKMAATAATCCQLSEDKLLACGEGAADIIIGHLCIRHEMTPVNPGVGQCCTSSYANRRPCFSSLVVDETYVPPAFSDDKFIFHKDLCQAQGVALQTMKQEFLINLVKQKPQITEEQLEAVIADFSGLLEKCCQGQEQEVCFAEEGQKLISKTRAALGV

Tests used:
U-937 cells [1] = experiment: Direct effect of peptides on U-937 cell proliferation ([3H]-thymidine incorporation); type: cell-based, human; conditions: peptides in dose 1 mM; U-937 cell proliferation vs control without additions
Description: Cells, cultivated without additions, were taken as a control.
(§1) To assess growth regulative activity of peptides various doses of peptides were added to the cells for 24 h and then the cells were assessed for proliferation, cell viability and DNA-fragmentation. To determine ability of peptides to modulate apoptosis induced by other factors Jurkat cells were treated with 20 ng/ml of CH-11 antibodies without ActD, Raji cells were treated with CH-11 in the presence of 0.5 μg/ml of ActD for 18 h. For induction of apoptosis with TNF-α, cells (Jurkat, MCF7 or U937) were treated for 24 h with 25 ng/ml of the cytokine and then were assessed for proliferation or viability as described above. HepG2 cells were pre-washed before TNF addition with fresh medium to remove endogenous growth factors.

U-937 cells [2] = experiment: Modulation of AFP-induced apoptosis / growth suppression in U-937 cells ([3H]-thymidine incorporation); type: cell-based, human; conditions: for Effect on AFP-induced apoptosis in whole cells (in words): 15 min peptide pre-treatment, then 3 μM AFP, 24 h
Description: Cell proliferation was assessed by [^3H]-thymidine incorporation assay after 24 h of incubation.
The cells were treated for […] with various doses of the peptides and thereafter 3 μM pure human AFP was added to each well. Cell proliferation was assessed by the [^3H]-thymidine incorporation assay after 24 h of incubation.
The cells were treated for 15 min with various doses of the peptide and thereafter 3 μM pure human AFP was added to each well. Cell proliferation was assessed by the [^3H]-thymidine incorporation assay after 24 h of incubation.
U937 cells were plated out at a density of 4×10^3 cells/well in flat-bottom 96-well plates (Costar) in the complete medium and incubated for 2 h before reagent additions. Then cells were treated for 24 h with various doses of AFP dissolved in PBS and then assessed for proliferation. Cell treatment with cytotoxic IgM anti-Fas antibody CH-11 was performed as described. U937 cells were treated with 50 ng/ml of CH-11 antibodies for 18 h. Cells were left untreated or were treated with reagents for adequate time intervals and for the last 4 h of culture were subjected to their [^3H]-thymidine (1 Ci/mmol/well) incorporation. Experimental data were expressed as a percentage of [^3H]-thymidine incorporation in triplicate cultures relative to the medium control. Cells, cultivated without additions, were taken as a control.
as §1

[3] = system: caspase-3 activation (DEVDase activity); experiment: dATP-dependent Cyt c-induced caspase-3 (DEVDase) activation in cell-free cytosolic extracts of HepG2 cells; type: biochemical, human; conditions: for Effect on high dose cytochrome c-mediated caspase activation (in words) / Effect on low dose cytochrome c-induced caspase activation (in words): cell-free extracts, 15 min pre-treatment; for Effect on high dose cytochrome c-mediated caspase activation (in words) / Effect on low dose cytochrome c-induced caspase activation (in words) / Effect on the high dose Cyt c-induced caspase activation: peptides 750 μM; for Effect on high dose cytochrome c-mediated caspase activation (in words): high dose (165 nM) cytochrome c; for Effect on low dose cytochrome c-induced caspase activation (in words): low dose (110 nM) cytochrome c; for Effect on the high dose Cyt c-induced caspase activation / Effect on the low dose Cyt c-induced caspase activation (stimulation, or result in words) / Effect on the low dose Cyt c-induced caspase activation (abrogation): DEVDase activity; for Effect on the high dose Cyt c-induced caspase activation / Effect on the low dose Cyt c-induced caspase activation (abrogation): numbers are % abrogation; for Effect on the low dose Cyt c-induced caspase activation (stimulation, or result in words): numbers are % stimulation
Description: Peptides in the concentration of 750 μM were added to the cell extracts 15 min before the cytochrome c addition. Caspase activation was monitored by the cleavage of caspase-3-specific fluorogenic substrate DEVD-AMC.
(§2) HepG2, human hepatocarcinoma cells and human monoblastoma cell line U937 originated from American Type Culture Collection. Cell extracts were prepared by lysing cells in a hypotonic extraction buffer. To obtain the cytosolic S-100 fraction, the cell lysate was centrifuged for 1 h at 100,000×g. Extracts were either used immediately or frozen at −70° C. for later use.
(§3) Cell-free reactions were typically set up in 13-μl reaction volumes. Apoptosis was induced by addition of various doses of bovine heart cytochrom c and/or purified human AFP in the presence of 1 mM dATP. For 13-μl scale reactions, 10 μl of cell extract (˜2-4 mg/ml, as determined by the Bradford assay) were supplemented with 1 μl of dATP, 1 μl of Cyt c and/or AFP solutions in reaction buffer to receive necessary final concentration of reagents. To assess activity of peptides, various doses of peptides being dissolved in the reaction buffer together with 1 mM dATP were added to the cell extracts. To determine ability of the peptides to modulate apoptotic effects of Cyt c and AFP, peptides were added to extracts 10 min before cytochrome c or AFP. Control samples were incubated with the equal volume of the buffer (3 μl) without reagent addition. To initiate apoptosis, extracts were incubated at 37° C. for 40 min.
(§4) At the end of a caspase activation reaction, extract aliquots (5 μl) were supplemented with fluorogenic substrate DEVD-AMC (3 mM) and then incubated for definite time intervals (0.5-1 h) at 37° C. Reactions were terminated by dilution with addition of 2.0 ml of ice-cold 0.2 mM sodium phosphate buffer, pH 7.5, followed by a measurement of fluorescence with a Perkin Elmer MPF-44A (λexc=365 nm and λem=440 nm ) fluorometer. For each sample, the fluorescence intensity was normalized in the respect of cytosolic protein concentration. Caspase activation was presented as the ratio between the normalized fluorescence intensity of the sample and the corresponding value measured with a control sample.
To test ability of various peptides to affect caspase activation induced by exogenous cytochrome c in cell free system, we used cytosolic cell extracts of HepG2 cells. Aliquots of cell extracts were pre-treated with 750 μM of peptides for 15 min and thereafter various doses of cytochrome c was introduced in the reaction mixture to induce caspase activation.

[4] = system: caspase-3 activation (DEVDase activity); experiment: Cyt c/AFP-mediated caspase-3 activation in cell-free cytosolic extracts of HepG2 cells; type: biochemical, human; conditions: for Effect on Cyt c/AFP-mediated caspase-3 activation (in words): cell-free HepG2 cytosolic extracts, 1 mM dATP; for Ability to affect AFP-induced Cyt c-dependent caspase activation: DEVDase activity, numbers are % abrogation
Description: Caspase activation was monitored by the cleavage of specific caspase-3 fluorogenic substrate DEVD-AMC.
as §2, §3, §4

[5] = system: caspase-3 activation (DEVDase activity); conditions: cell-free system, no dATP
Description: as §2
Cell-free reactions were typically set up in 13-μl reaction volumes. Apoptosis was induced by addition of various doses of bovine heart cytochrom c and/or purified human AFP in the presence of 1 mM dATP. For 13-μl scale reactions, 10 μl of cell extract (˜2-4 mg/ml, as determined by the Bradford assay) were supplemented with 1 μl of dATP, 1 μl of Cyt c and/or AFP solutions in reaction buffer to receive necessary final concentration of reagents. […]
At the end of a caspase activation reaction, extract aliquots (5 μl) were supplemented with fluorogenic substrate DEVD-AMC (3 mM) and then incubated for definite time intervals (0.5-1 h) at 37° C. Reactions were terminated by dilution with addition of 2.0 ml of ice-cold 0.2 mM sodium phosphate buffer, pH 7.5, followed by a measurement of fluorescence with a Perkin Elmer MPF-44A (λexc=365 nm and λem=440 nm ) fluorometer. For each sample, the fluorescence intensity was normalized in the respect of cytosolic protein concentration. […]

U-937 cells [6] = system: U-937 cells
[7] = system: caspase-3 activation (DEVDase activity); experiment: dATP-dependent Cyt c-induced caspase-3 (DEVDase) activation in cell-free cytosolic extracts of HepG2 cells; type: biochemical, human

Row | Molecule | Effect on the cell growth (% of control) (U-937 cells [1]) | Effect on AFP-induced apoptosis in whole cells (in words) (U-937 cells [2]) | Effect on high dose cytochrome c-mediated caspase activation (in words) [3] | Effect on low dose cytochrome c-induced caspase activation (in words) [3] | Effect on the high dose Cyt c-induced caspase activation ([3]; cell-free system) | Effect on the low dose Cyt c-induced caspase activation (stimulation, or result in words) ([3]; cell-free system) | Ability to affect AFP-induced Cyt c-dependent caspase activation ([4]; cell-free system) | other results
1 | *Cys-*Cys-Arg-Gly-Asp-Val-Leu-Asp-Cys* [apocyclin-A] | +12 % of control | completely abrogates; also recorded: completely cancelled | decreased; also recorded: significantly inhibited; also recorded: practically completely abrogated; also recorded: significant inhibition | significantly enhanced; also recorded: moderately supported; also recorded: notably enhanced; also recorded: same stimulation as full-length AFP molecule | 50-80% | 30% stimulation | 70-80% | Stimulation of proliferation relatively to the medium control (U-937 cells [2]; 15-min pre-treatment with 1 mM, 24-h cultivation): 15%; Inhibition of caspase activation induced by high doses of endogenous cytochrome c ([3]; peptide 750 μM, cell-free system): 50-70%; Effect on Cyt c/AFP-mediated caspase-3 activation (in words) [4]: abrogates; also recorded: cancelled; Inhibition of Cyt c/AFP-mediated caspase activation ([4]; cell-free system, combined cytochrome c/AFP treatment): 60-80%; Induction of DEVD-ase activity without dATP addition (in words) [5]: unable to induce; Abrogation of the total anti-Fas-mediated apoptosis effect (U-937 cells [6]; 0.5 mM peptide, U-937 cells, various doses of CH-11): about 50%; Inhibition of anti-Fas-induced apoptosis (in words) (U-937 cells [6]; peptide concentration up to 1 mM, U-937 cells): more significant inhibition; Inhibition of anti-Fas-mediated cell death (in words) (U-937 cells [6]; summary statement, concentration not given): significantly inhibits
2 | *Cys-Cys-His-Gly-Asp-Leu-Leu-Glu-Cys* (CCHGDLLEC; disulfide 1-9) [Cyclic peptide from human serum albumin] | +18 % of control | no activity | no activity | no effect | no effect | no effect | no effect | 
3 | *Cys-Gly-Arg-Gly-Asp-Val-Leu-Asp-Cys* | −12 % of control | failed to abrogate; also recorded: no activity | no activity | no effect | no effect | no effect | no effect | 
4 | *Cys-Gly-His-Gly-Asp-Leu-Leu-Glu-Cys* (CGHGDLLEC; disulfide 1-9 (inferred)) [Cyclic peptide from HSA, Cys substituted for Gly] |  | did not affect |  |  |  |  |  | 
5 | HGDLLE [Linear peptide from HSA] | +20 % of control | did not affect | significant inhibition | significant abrogation | 90% abrogation |  | no effect | Effect on the low dose Cyt c-induced caspase activation (abrogation) ([3]; cell-free system): 70% abrogation
6 | RGDVLD [Linear 6-mer peptide from AFP] | +10 % of control | did not revealed any apoptosis-regulating activity; also recorded: incapable of regulation | significant inhibition | significant abrogation | 80% abrogation |  | no effect | Effect on AFP-induced apoptosis in whole cells (in words) (U-937 cells [2]; listed as p25): not in the whole cells; Effect on the low dose Cyt c-induced caspase activation (abrogation) ([3]; cell-free system): 30-50%; Retention of apocyclin-A's modulation of Cyt c-mediated caspase activation in a cell-free system (in words) ([3]; summary statement): partially retained this activity; Effect on Cyt c/AFP-mediated caspase-3 activation (in words) [4]: able to abrogate
7 | B1 |  |  |  |  | 80% abrogation | 50% stimulation |  | Caspase activation in 'silent' cytosolic extracts with low suboptimal dose of exogenous cyt-c and dATP (in words) ([7]; AFP 7 μM, time-dependent, up to two hours): triggered the process of caspase activation; Caspase activation in the absence of dATP (in words) ([7]; S100 cytosolic extract, no dATP): did not induce any caspase activation; Induction of caspase-3-specific DEVDase activity in S100 cytosolic extract (in words) ([7]; protein 7 μM with dATP 1 mM, no exogenous cyt-c, up to 2 h): triggered dATP-dependent induction

Reference: patent US7446095B2, “Peptides modulating caspase activation” (priority 2002, dated 2008)
